Test results from the NIST ThermoML archive (doi:10.1021/je800883b).
Numbers after ± are expanded uncertainties.

Columns and labels:
[1] = 101 kPa, Liquid, Pycnometric method
[2] = xn = mol fraction of the nth substance listed; details: 101 kPa, Liquid, Pycnometric method

With CCC(C)=O [butanone] the mass density ([1]; 303.15 K) was 794.6 ± 0.8 kg/m3, the mass density ([1]; 313.15 K) was 784 ± 0.8 kg/m3 and the mass density ([1]; 323.15 K) was 773.3 ± 0.8 kg/m3.
In the case of CCCCCC [hexane], the mass density ([1]; 303.15 K) is reported as 650.9 ± 2.4 kg/m3, the mass density ([1]; 313.15 K) is reported as 641.7 ± 2.4 kg/m3 and the mass density ([1]; 323.15 K) is reported as 630.9 ± 2.3 kg/m3.
Compound CCCCCC [hexane] + CCC(C)=O has a mass density ([2]; 303.15 K, x2 = 0) of 650.9 ± 2.4 kg/m3, a mass density ([2]; 313.15 K, x2 = 0) of 641.7 ± 2.4 kg/m3 and a mass density ([2]; 323.15 K, x2 = 0) of 630.9 ± 2.3 kg/m3.
c1ccccc1 [benzene] showed a mass density ([1]; 303.15 K) of 868.1 ± 0.6 kg/m3, a mass density ([1]; 313.15 K) of 857.4 ± 0.6 kg/m3 and a mass density ([1]; 323.15 K) of 846.6 ± 0.6 kg/m3.
Compound CCC(C)=O [butanone] + CCCCCC has a mass density ([2]; 303.15 K, x1 = 0.1057) of 660 ± 2.2 kg/m3, a mass density ([2]; 303.15 K, x1 = 0.2048) of 670 ± 2 kg/m3 and a mass density ([2]; 303.15 K, x1 = 0.3035) of 680.6 ± 1.8 kg/m3. For the same compound, the mass density ([2]; 303.15 K, x1 = 0.4071) was 692.9 ± 1.6 kg/m3, the mass density ([2]; 303.15 K, x1 = 0.5035) was 706 ± 1.4 kg/m3 and the mass density ([2]; 303.15 K, x1 = 0.6029) was 720.7 ± 1.3 kg/m3. The mass density ([2]; 303.15 K, x1 = 0.7042) was 736.8 ± 1.1 kg/m3, the mass density ([2]; 303.15 K, x1 = 0.8059) was 754.9 ± 1 kg/m3 and the mass density ([2]; 303.15 K, x1 = 0.9033) was 774 ± 0.9 kg/m3. For the same compound, the mass density ([2]; 303.15 K, x1 = 1) was 794.6 ± 0.8 kg/m3, the mass density ([2]; 313.15 K, x1 = 0.1057) was 650.4 ± 2.2 kg/m3 and the mass density ([2]; 313.15 K, x1 = 0.2048) was 659 ± 1.9 kg/m3. It also gave a mass density ([2]; 313.15 K, x1 = 0.3035) of 669.5 ± 1.8 kg/m3, a mass density ([2]; 313.15 K, x1 = 0.4071) of 682 ± 1.6 kg/m3 and a mass density ([2]; 313.15 K, x1 = 0.5035) of 694.7 ± 1.4 kg/m3. The mass density ([2]; 313.15 K, x1 = 0.6029) was 709.2 ± 1.3 kg/m3, the mass density ([2]; 313.15 K, x1 = 0.7042) was 725.3 ± 1.1 kg/m3 and the mass density ([2]; 313.15 K, x1 = 0.8059) was 742.9 ± 1 kg/m3. It also gave a mass density ([2]; 313.15 K, x1 = 0.9033) of 763 ± 0.9 kg/m3, a mass density ([2]; 313.15 K, x1 = 1) of 784 ± 0.8 kg/m3 and a mass density ([2]; 323.15 K, x1 = 0.1057) of 639.6 ± 2.1 kg/m3. The mass density ([2]; 323.15 K, x1 = 0.2048) was 648 ± 1.9 kg/m3, the mass density ([2]; 323.15 K, x1 = 0.3035) was 658.5 ± 1.7 kg/m3 and the mass density ([2]; 323.15 K, x1 = 0.4071) was 670.4 ± 1.6 kg/m3. For the same compound, the mass density ([2]; 323.15 K, x1 = 0.5035) was 683.8 ± 1.4 kg/m3, the mass density ([2]; 323.15 K, x1 = 0.6029) was 698.2 ± 1.2 kg/m3 and the mass density ([2]; 323.15 K, x1 = 0.7042) was 714.2 ± 1.1 kg/m3. It also gave a mass density ([2]; 323.15 K, x1 = 0.8059) of 732.2 ± 1 kg/m3, a mass density ([2]; 323.15 K, x1 = 0.9033) of 752.3 ± 0.9 kg/m3 and a mass density ([2]; 323.15 K, x1 = 1) of 773.3 ± 0.8 kg/m3.
Work on CCC(C)=O [butanone] + C1CCCCC1 yielded a mass density ([2]; 303.15 K, x1 = 0.1066) of 768 ± 0.6 kg/m3, a mass density ([2]; 303.15 K, x1 = 0.2093) of 768.3 ± 0.6 kg/m3 and a mass density ([2]; 303.15 K, x1 = 0.3084) of 769.5 ± 0.6 kg/m3. For the same compound, the mass density ([2]; 303.15 K, x1 = 0.4042) was 771.3 ± 0.6 kg/m3, the mass density ([2]; 303.15 K, x1 = 0.5064) was 773.6 ± 0.7 kg/m3 and the mass density ([2]; 303.15 K, x1 = 0.6055) was 776.2 ± 0.7 kg/m3. The mass density ([2]; 303.15 K, x1 = 0.7007) was 779.8 ± 0.7 kg/m3, the mass density ([2]; 303.15 K, x1 = 0.8015) was 784 ± 0.7 kg/m3 and the mass density ([2]; 303.15 K, x1 = 0.907) was 789.6 ± 0.8 kg/m3. For the same compound, the mass density ([2]; 303.15 K, x1 = 1) was 794.6 ± 0.8 kg/m3, the mass density ([2]; 313.15 K, x1 = 0.1066) was 758.3 ± 0.6 kg/m3 and the mass density ([2]; 313.15 K, x1 = 0.2093) was 757.4 ± 0.6 kg/m3. The mass density ([2]; 313.15 K, x1 = 0.3084) was 758.2 ± 0.6 kg/m3, the mass density ([2]; 313.15 K, x1 = 0.4042) was 759.9 ± 0.6 kg/m3 and the mass density ([2]; 313.15 K, x1 = 0.5064) was 762.4 ± 0.7 kg/m3. The mass density ([2]; 313.15 K, x1 = 0.6055) was 765.1 ± 0.7 kg/m3, the mass density ([2]; 313.15 K, x1 = 0.7007) was 769.2 ± 0.7 kg/m3 and the mass density ([2]; 313.15 K, x1 = 0.8015) was 772.7 ± 0.7 kg/m3. It also gave a mass density ([2]; 313.15 K, x1 = 0.907) of 777.8 ± 0.8 kg/m3, a mass density ([2]; 313.15 K, x1 = 1) of 784 ± 0.8 kg/m3 and a mass density ([2]; 323.15 K, x1 = 0.1066) of 747.4 ± 0.6 kg/m3. It also gave a mass density ([2]; 323.15 K, x1 = 0.2093) of 746.5 ± 0.6 kg/m3, a mass density ([2]; 323.15 K, x1 = 0.3084) of 747.3 ± 0.6 kg/m3 and a mass density ([2]; 323.15 K, x1 = 0.4042) of 749.2 ± 0.6 kg/m3. It also gave a mass density ([2]; 323.15 K, x1 = 0.5064) of 751.3 ± 0.7 kg/m3, a mass density ([2]; 323.15 K, x1 = 0.6055) of 754.4 ± 0.7 kg/m3 and a mass density ([2]; 323.15 K, x1 = 0.7007) of 757.8 ± 0.7 kg/m3. For the same compound, the mass density ([2]; 323.15 K, x1 = 0.8015) was 761.7 ± 0.7 kg/m3, the mass density ([2]; 323.15 K, x1 = 0.907) was 767.2 ± 0.8 kg/m3 and the mass density ([2]; 323.15 K, x1 = 1) was 773.3 ± 0.8 kg/m3.
For c1ccccc1 [benzene] + CCC(C)=O, the mass density ([2]; 303.15 K, x2 = 0) was 868.1 ± 0.6 kg/m3, the mass density ([2]; 313.15 K, x2 = 0) was 857.4 ± 0.6 kg/m3 and the mass density ([2]; 323.15 K, x2 = 0) was 846.6 ± 0.6 kg/m3.
With C1CCCCC1 [cyclohexane] + CCC(C)=O the mass density ([2]; 303.15 K, x2 = 0) was 768.9 ± 0.6 kg/m3, the mass density ([2]; 313.15 K, x2 = 0) was 759.2 ± 0.6 kg/m3 and the mass density ([2]; 323.15 K, x2 = 0) was 748.7 ± 0.6 kg/m3.
Compound C1CCCCC1 [cyclohexane] has a mass density ([1]; 303.15 K) of 768.9 ± 0.6 kg/m3, a mass density ([1]; 313.15 K) of 759.2 ± 0.6 kg/m3 and a mass density ([1]; 323.15 K) of 748.7 ± 0.6 kg/m3.
Work on CCC(C)=O [butanone] + c1ccccc1 yielded a mass density ([2]; 303.15 K, x1 = 0.101) of 861.2 ± 0.6 kg/m3, a mass density ([2]; 303.15 K, x1 = 0.1999) of 854.2 ± 0.6 kg/m3 and a mass density ([2]; 303.15 K, x1 = 0.2988) of 847.1 ± 0.6 kg/m3. For the same compound, the mass density ([2]; 303.15 K, x1 = 0.3969) was 839.9 ± 0.7 kg/m3, the mass density ([2]; 303.15 K, x1 = 0.4996) was 832.7 ± 0.7 kg/m3 and the mass density ([2]; 303.15 K, x1 = 0.5988) was 825.2 ± 0.7 kg/m3. The mass density ([2]; 303.15 K, x1 = 0.6993) was 817.5 ± 0.7 kg/m3, the mass density ([2]; 303.15 K, x1 = 0.7931) was 809.9 ± 0.8 kg/m3 and the mass density ([2]; 303.15 K, x1 = 0.8961) was 802.2 ± 0.8 kg/m3. For the same compound, the mass density ([2]; 303.15 K, x1 = 1) was 794.6 ± 0.8 kg/m3, the mass density ([2]; 313.15 K, x1 = 0.101) was 850.6 ± 0.6 kg/m3 and the mass density ([2]; 313.15 K, x1 = 0.1999) was 843.5 ± 0.6 kg/m3. The mass density ([2]; 313.15 K, x1 = 0.2988) was 836.6 ± 0.7 kg/m3, the mass density ([2]; 313.15 K, x1 = 0.3969) was 829.3 ± 0.7 kg/m3 and the mass density ([2]; 313.15 K, x1 = 0.4996) was 822.1 ± 0.7 kg/m3. It also gave a mass density ([2]; 313.15 K, x1 = 0.5988) of 814.6 ± 0.7 kg/m3, a mass density ([2]; 313.15 K, x1 = 0.6993) of 806.9 ± 0.7 kg/m3 and a mass density ([2]; 313.15 K, x1 = 0.7931) of 799.4 ± 0.8 kg/m3. For the same compound, the mass density ([2]; 313.15 K, x1 = 0.8961) was 791.7 ± 0.8 kg/m3, the mass density ([2]; 313.15 K, x1 = 1) was 784 ± 0.8 kg/m3 and the mass density ([2]; 323.15 K, x1 = 0.101) was 839.9 ± 0.6 kg/m3. It also gave a mass density ([2]; 323.15 K, x1 = 0.1999) of 832.9 ± 0.6 kg/m3, a mass density ([2]; 323.15 K, x1 = 0.2988) of 825.9 ± 0.7 kg/m3 and a mass density ([2]; 323.15 K, x1 = 0.3969) of 818.7 ± 0.7 kg/m3. It also gave a mass density ([2]; 323.15 K, x1 = 0.4996) of 811.5 ± 0.7 kg/m3, a mass density ([2]; 323.15 K, x1 = 0.5988) of 803.9 ± 0.7 kg/m3 and a mass density ([2]; 323.15 K, x1 = 0.6993) of 796.4 ± 0.7 kg/m3. For the same compound, the mass density ([2]; 323.15 K, x1 = 0.7931) was 788.9 ± 0.8 kg/m3, the mass density ([2]; 323.15 K, x1 = 0.8961) was 781.1 ± 0.8 kg/m3 and the mass density ([2]; 323.15 K, x1 = 1) was 773.3 ± 0.8 kg/m3.
